Experimental data: PubChem BioAssay (NCI)
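At the GI50, growth is halved. TGI: total growth inhibition.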

Experiments:
Assay in all cases: inhibition of tumour cell growth, NCI panel, 384-well format
NCI-H322M lung = test system: NCI-H322M lung
SK-MEL-5 melanoma = test system: SK-MEL-5 melanoma
UACC-62 melanoma = test system: UACC-62 melanoma
RPMI-8226 leukemia = test system: RPMI-8226 leukemia
KM12 colon = test system: KM12 colon
SK-MEL-28 melanoma = test system: SK-MEL-28 melanoma
A498 renal = test system: A498 renal
NCI-H460 NSCLC = test system: NCI-H460 NSCLC
NCI-H226 lung = test system: NCI-H226 lung
PC-3 prostate = test system: PC-3 prostate
U251 glioblastoma = test system: U251 glioblastoma
SK-MEL-2 melanoma = test system: SK-MEL-2 melanoma
EKVX NSCLC = test system: EKVX NSCLC

Compound: FC(F)(F)c1ccc(CNc2ccc(Cc3c[nH]c4ncc(Cl)cc34)cn2)cn1
- GI50 (NCI-H322M lung): 8.81 µM
- TGI (NCI-H322M lung): 21.6 µM
- GI50 (SK-MEL-5 melanoma): 6.22 µM
- TGI (SK-MEL-5 melanoma): 18.3 µM
- GI50 (UACC-62 melanoma): 12.5 µM
- TGI (UACC-62 melanoma): 25.3 µM
- GI50 (RPMI-8226 leukemia): 6.96 µM
- TGI (RPMI-8226 leukemia): 19.1 µM
- GI50 (KM12 colon): 4.46 µM
- TGI (KM12 colon): 14.2 µM
- GI50 (SK-MEL-28 melanoma): 9 µM
- TGI (SK-MEL-28 melanoma): 21.7 µM
- GI50 (A498 renal): 7.91 µM
- TGI (A498 renal): 19.1 µM
- GI50 (NCI-H460 NSCLC): 12.9 µM
- TGI (NCI-H460 NSCLC): 26.1 µM
- GI50 (NCI-H226 lung): 5.32 µM
- TGI (NCI-H226 lung): 16.3 µM
- GI50 (PC-3 prostate): 12.7 µM
- TGI (PC-3 prostate): 25.7 µM
- GI50 (U251 glioblastoma): 14.2 µM
- TGI (U251 glioblastoma): 27.5 µM
- GI50 (SK-MEL-2 melanoma): 7.92 µM
- TGI (SK-MEL-2 melanoma): 20.4 µM
- GI50 (EKVX NSCLC): 10.7 µM
- TGI (EKVX NSCLC): 23.7 µM
